The supplement of paper PMC8671470

What follows are compounds tested on BV-173 (assay: cell viability (% survival relative to DMSO control, bortezomib = 0%); higher = less cytotoxic). Settings: 1000 nM; 72 h.
Procedure, shortened: (§1)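 Percent survival is reported as the mean of duplicate wells. Cells from 10 AML and 5 CML lines were plated in 384-well plates containing compounds at 1, 10, 100, 1000 or 10000 nM and kept for 72 h at 37 °C in 5% CO2. Readout used CellTiter-Glo luminescence, scaled so that vehicle equals 100% and a 10 µM positive control equals 0%.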

Compound	cell viability
CCC(=O)N1CCN(c2ccc(-n3c(=O)ccc4cnc5ccc(-c6cnc7ccccc7c6)cc5c43)cc2C(F)(F)F)CC1 [Torin1]	20.9%

Same assay, conditions: 10000 nM; 72 h

Compound	cell viability
O[C@H]1[C@H]2[C@H](O)CCCN2C[C@H]1O [Swainsonine]	86.1%
Cc1coc2c1C(=O)C(=O)c1c-2ccc2c1CCCC2(C)C [Tanshinone IIA]	87.7%
Cc1cn([C@H]2C[C@H](O)[C@@H](COP(=O)(O)OP(=O)(O)O)O2)c(=O)[nH]c1=O [Thymidine diphosphate]	39%
CN(C)c1cc(NC(=O)CNC(C)(C)C)c(O)c2c1C[C@H]1C[C@H]3[C@H](N(C)C)C(=O)C(C(N)=O)C(=O)[C@@]3(O)C(=O)C1C2=O (stereo partly drawn) [Tigecycline]	83.4%
COc1ccc2c(C(=S)N(C)CC(=O)O)cccc2c1C(F)(F)F [Tolrestat]	101%
CC[C@@]1(O)C(=O)OCc2c1cc1n(c2=O)Cc2cc3c(CN(C)C)c(O)ccc3nc2-1 [Topotecan]	0.196%
CCC(=O)N1CCN(c2ccc(-n3c(=O)ccc4cnc5ccc(-c6cnc7ccccc7c6)cc5c43)cc2C(F)(F)F)CC1 [Torin1]	8.44%

What follows are compounds tested on LAMA-84 in the same assay as above. Settings: 1 nM; 72 h.
Procedure, shortened: as §1

Compound	cell viability
O[C@H]1[C@H]2[C@H](O)CCCN2C[C@H]1O [Swainsonine]	112%
Cc1coc2c1C(=O)C(=O)c1c-2ccc2c1CCCC2(C)C [Tanshinone IIA]	102%
Cc1cn([C@H]2C[C@H](O)[C@@H](COP(=O)(O)OP(=O)(O)O)O2)c(=O)[nH]c1=O [Thymidine diphosphate]	97.1%
CN(C)c1cc(NC(=O)CNC(C)(C)C)c(O)c2c1C[C@H]1C[C@H]3[C@H](N(C)C)C(=O)C(C(N)=O)C(=O)[C@@]3(O)C(=O)C1C2=O (stereo partly drawn) [Tigecycline]	105%
COc1ccc2c(C(=S)N(C)CC(=O)O)cccc2c1C(F)(F)F [Tolrestat]	97.7%
CC[C@@]1(O)C(=O)OCc2c1cc1n(c2=O)Cc2cc3c(CN(C)C)c(O)ccc3nc2-1 [Topotecan]	93.6%
CCC(=O)N1CCN(c2ccc(-n3c(=O)ccc4cnc5ccc(-c6cnc7ccccc7c6)cc5c43)cc2C(F)(F)F)CC1 [Torin1]	105%

Same assay, conditions: 10 nM; 72 h

Compound	cell viability
O[C@H]1[C@H]2[C@H](O)CCCN2C[C@H]1O [Swainsonine]	94%
Cc1coc2c1C(=O)C(=O)c1c-2ccc2c1CCCC2(C)C [Tanshinone IIA]	97.7%
Cc1cn([C@H]2C[C@H](O)[C@@H](COP(=O)(O)OP(=O)(O)O)O2)c(=O)[nH]c1=O [Thymidine diphosphate]	97.9%
CN(C)c1cc(NC(=O)CNC(C)(C)C)c(O)c2c1C[C@H]1C[C@H]3[C@H](N(C)C)C(=O)C(C(N)=O)C(=O)[C@@]3(O)C(=O)C1C2=O (stereo partly drawn) [Tigecycline]	94.3%
COc1ccc2c(C(=S)N(C)CC(=O)O)cccc2c1C(F)(F)F [Tolrestat]	106%
CC[C@@]1(O)C(=O)OCc2c1cc1n(c2=O)Cc2cc3c(CN(C)C)c(O)ccc3nc2-1 [Topotecan]	97.4%
CCC(=O)N1CCN(c2ccc(-n3c(=O)ccc4cnc5ccc(-c6cnc7ccccc7c6)cc5c43)cc2C(F)(F)F)CC1 [Torin1]	93.1%

Same assay, conditions: 100 nM; 72 h

Compound	cell viability
O[C@H]1[C@H]2[C@H](O)CCCN2C[C@H]1O [Swainsonine]	103%
Cc1coc2c1C(=O)C(=O)c1c-2ccc2c1CCCC2(C)C [Tanshinone IIA]	98.5%
Cc1cn([C@H]2C[C@H](O)[C@@H](COP(=O)(O)OP(=O)(O)O)O2)c(=O)[nH]c1=O [Thymidine diphosphate]	106%
CN(C)c1cc(NC(=O)CNC(C)(C)C)c(O)c2c1C[C@H]1C[C@H]3[C@H](N(C)C)C(=O)C(C(N)=O)C(=O)[C@@]3(O)C(=O)C1C2=O (stereo partly drawn) [Tigecycline]	105%
COc1ccc2c(C(=S)N(C)CC(=O)O)cccc2c1C(F)(F)F [Tolrestat]	100%
CC[C@@]1(O)C(=O)OCc2c1cc1n(c2=O)Cc2cc3c(CN(C)C)c(O)ccc3nc2-1 [Topotecan]	29.2%
CCC(=O)N1CCN(c2ccc(-n3c(=O)ccc4cnc5ccc(-c6cnc7ccccc7c6)cc5c43)cc2C(F)(F)F)CC1 [Torin1]	80.2%

Same assay, conditions: 1000 nM; 72 h

Compound	cell viability
O[C@H]1[C@H]2[C@H](O)CCCN2C[C@H]1O [Swainsonine]	99.7%
Cc1coc2c1C(=O)C(=O)c1c-2ccc2c1CCCC2(C)C [Tanshinone IIA]	99.6%
Cc1cn([C@H]2C[C@H](O)[C@@H](COP(=O)(O)OP(=O)(O)O)O2)c(=O)[nH]c1=O [Thymidine diphosphate]	94.5%
CN(C)c1cc(NC(=O)CNC(C)(C)C)c(O)c2c1C[C@H]1C[C@H]3[C@H](N(C)C)C(=O)C(C(N)=O)C(=O)[C@@]3(O)C(=O)C1C2=O (stereo partly drawn) [Tigecycline]	102%
COc1ccc2c(C(=S)N(C)CC(=O)O)cccc2c1C(F)(F)F [Tolrestat]	95.6%
CC[C@@]1(O)C(=O)OCc2c1cc1n(c2=O)Cc2cc3c(CN(C)C)c(O)ccc3nc2-1 [Topotecan]	1.78%
CCC(=O)N1CCN(c2ccc(-n3c(=O)ccc4cnc5ccc(-c6cnc7ccccc7c6)cc5c43)cc2C(F)(F)F)CC1 [Torin1]	28.8%

Same assay, conditions: 10000 nM; 72 h

Compound	cell viability
O[C@H]1[C@H]2[C@H](O)CCCN2C[C@H]1O [Swainsonine]	98.6%
Cc1coc2c1C(=O)C(=O)c1c-2ccc2c1CCCC2(C)C [Tanshinone IIA]	102%
Cc1cn([C@H]2C[C@H](O)[C@@H](COP(=O)(O)OP(=O)(O)O)O2)c(=O)[nH]c1=O [Thymidine diphosphate]	86.7%
CN(C)c1cc(NC(=O)CNC(C)(C)C)c(O)c2c1C[C@H]1C[C@H]3[C@H](N(C)C)C(=O)C(C(N)=O)C(=O)[C@@]3(O)C(=O)C1C2=O (stereo partly drawn) [Tigecycline]	90%
COc1ccc2c(C(=S)N(C)CC(=O)O)cccc2c1C(F)(F)F [Tolrestat]	98.6%
CC[C@@]1(O)C(=O)OCc2c1cc1n(c2=O)Cc2cc3c(CN(C)C)c(O)ccc3nc2-1 [Topotecan]	0.506%
CCC(=O)N1CCN(c2ccc(-n3c(=O)ccc4cnc5ccc(-c6cnc7ccccc7c6)cc5c43)cc2C(F)(F)F)CC1 [Torin1]	21.8%

These compounds were tested on HL-60 in the same assay as above. Settings: 1 nM; 72 h.
Procedure, shortened: as §1

Compound	cell viability
O[C@H]1[C@H]2[C@H](O)CCCN2C[C@H]1O [Swainsonine]	107%
Cc1coc2c1C(=O)C(=O)c1c-2ccc2c1CCCC2(C)C [Tanshinone IIA]	113%
Cc1cn([C@H]2C[C@H](O)[C@@H](COP(=O)(O)OP(=O)(O)O)O2)c(=O)[nH]c1=O [Thymidine diphosphate]	88.6%
CN(C)c1cc(NC(=O)CNC(C)(C)C)c(O)c2c1C[C@H]1C[C@H]3[C@H](N(C)C)C(=O)C(C(N)=O)C(=O)[C@@]3(O)C(=O)C1C2=O (stereo partly drawn) [Tigecycline]	153%
COc1ccc2c(C(=S)N(C)CC(=O)O)cccc2c1C(F)(F)F [Tolrestat]	107%
CC[C@@]1(O)C(=O)OCc2c1cc1n(c2=O)Cc2cc3c(CN(C)C)c(O)ccc3nc2-1 [Topotecan]	94.9%
CCC(=O)N1CCN(c2ccc(-n3c(=O)ccc4cnc5ccc(-c6cnc7ccccc7c6)cc5c43)cc2C(F)(F)F)CC1 [Torin1]	73.2%

Same assay, conditions: 10 nM; 72 h

Compound	cell viability
O[C@H]1[C@H]2[C@H](O)CCCN2C[C@H]1O [Swainsonine]	88%
Cc1coc2c1C(=O)C(=O)c1c-2ccc2c1CCCC2(C)C [Tanshinone IIA]	96.6%
Cc1cn([C@H]2C[C@H](O)[C@@H](COP(=O)(O)OP(=O)(O)O)O2)c(=O)[nH]c1=O [Thymidine diphosphate]	85.2%
CN(C)c1cc(NC(=O)CNC(C)(C)C)c(O)c2c1C[C@H]1C[C@H]3[C@H](N(C)C)C(=O)C(C(N)=O)C(=O)[C@@]3(O)C(=O)C1C2=O (stereo partly drawn) [Tigecycline]	81.2%
COc1ccc2c(C(=S)N(C)CC(=O)O)cccc2c1C(F)(F)F [Tolrestat]	104%
CC[C@@]1(O)C(=O)OCc2c1cc1n(c2=O)Cc2cc3c(CN(C)C)c(O)ccc3nc2-1 [Topotecan]	81.7%
CCC(=O)N1CCN(c2ccc(-n3c(=O)ccc4cnc5ccc(-c6cnc7ccccc7c6)cc5c43)cc2C(F)(F)F)CC1 [Torin1]	95.1%

Same assay, conditions: 100 nM; 72 h

Compound	cell viability
O[C@H]1[C@H]2[C@H](O)CCCN2C[C@H]1O [Swainsonine]	104%
Cc1coc2c1C(=O)C(=O)c1c-2ccc2c1CCCC2(C)C [Tanshinone IIA]	95.1%
Cc1cn([C@H]2C[C@H](O)[C@@H](COP(=O)(O)OP(=O)(O)O)O2)c(=O)[nH]c1=O [Thymidine diphosphate]	87.7%
CN(C)c1cc(NC(=O)CNC(C)(C)C)c(O)c2c1C[C@H]1C[C@H]3[C@H](N(C)C)C(=O)C(C(N)=O)C(=O)[C@@]3(O)C(=O)C1C2=O (stereo partly drawn) [Tigecycline]	69.6%
COc1ccc2c(C(=S)N(C)CC(=O)O)cccc2c1C(F)(F)F [Tolrestat]	122%
CC[C@@]1(O)C(=O)OCc2c1cc1n(c2=O)Cc2cc3c(CN(C)C)c(O)ccc3nc2-1 [Topotecan]	0.181%
CCC(=O)N1CCN(c2ccc(-n3c(=O)ccc4cnc5ccc(-c6cnc7ccccc7c6)cc5c43)cc2C(F)(F)F)CC1 [Torin1]	85.7%

Same assay, conditions: 1000 nM; 72 h

Compound	cell viability
O[C@H]1[C@H]2[C@H](O)CCCN2C[C@H]1O [Swainsonine]	95.8%
Cc1coc2c1C(=O)C(=O)c1c-2ccc2c1CCCC2(C)C [Tanshinone IIA]	98.7%
Cc1cn([C@H]2C[C@H](O)[C@@H](COP(=O)(O)OP(=O)(O)O)O2)c(=O)[nH]c1=O [Thymidine diphosphate]	109%
CN(C)c1cc(NC(=O)CNC(C)(C)C)c(O)c2c1C[C@H]1C[C@H]3[C@H](N(C)C)C(=O)C(C(N)=O)C(=O)[C@@]3(O)C(=O)C1C2=O (stereo partly drawn) [Tigecycline]	110%
COc1ccc2c(C(=S)N(C)CC(=O)O)cccc2c1C(F)(F)F [Tolrestat]	49.1%
CC[C@@]1(O)C(=O)OCc2c1cc1n(c2=O)Cc2cc3c(CN(C)C)c(O)ccc3nc2-1 [Topotecan]	0.081%
CCC(=O)N1CCN(c2ccc(-n3c(=O)ccc4cnc5ccc(-c6cnc7ccccc7c6)cc5c43)cc2C(F)(F)F)CC1 [Torin1]	65.3%

Same assay, conditions: 10000 nM; 72 h

Compound	cell viability
O[C@H]1[C@H]2[C@H](O)CCCN2C[C@H]1O [Swainsonine]	112%
Cc1coc2c1C(=O)C(=O)c1c-2ccc2c1CCCC2(C)C [Tanshinone IIA]	79.3%
Cc1cn([C@H]2C[C@H](O)[C@@H](COP(=O)(O)OP(=O)(O)O)O2)c(=O)[nH]c1=O [Thymidine diphosphate]	104%
CN(C)c1cc(NC(=O)CNC(C)(C)C)c(O)c2c1C[C@H]1C[C@H]3[C@H](N(C)C)C(=O)C(C(N)=O)C(=O)[C@@]3(O)C(=O)C1C2=O (stereo partly drawn) [Tigecycline]	75.6%
COc1ccc2c(C(=S)N(C)CC(=O)O)cccc2c1C(F)(F)F [Tolrestat]	101%
CC[C@@]1(O)C(=O)OCc2c1cc1n(c2=O)Cc2cc3c(CN(C)C)c(O)ccc3nc2-1 [Topotecan]	1.02%
CCC(=O)N1CCN(c2ccc(-n3c(=O)ccc4cnc5ccc(-c6cnc7ccccc7c6)cc5c43)cc2C(F)(F)F)CC1 [Torin1]	24.6%
